This passage reports IC50 results from ChEMBL document CHEMBL1136778, “Mitomycin antitumor compounds. 2. Interaction of transition metal ions with mitomycin C. Solution structure and biological activity of a Pd(2+)-MMC complex” (J Med Chem, 2003).

The test system of assay [1] is K562. Put plainly: In vitro inhibitory activity against K562 leukemia cells. The assay is classed as functional, cell-based. As to conditions: Homo sapiens.
The test system of assay [2] is K562. Put plainly: In vitro inhibitory activity against K562 leukemia cells in the presence of pd2. Type of assay: functional, cell-based. Particulars: Homo sapiens.

Structures are written as SMILES.

As to `CC1=C(N)C(=O)c2c(COC(N)=O)c3n(c2C1=O)C[C@H](N)[C@@H]3O`, the midpoint of inhibition in the assay on K562 [1], the IC50, lay at 33 nM.
Regarding `CO[C@@]12[C@H](COC(N)=O)C3=C(C(=O)C(C)=C(N)C3=O)N1C[C@@H]1N[C@@H]12` [MITOMYCIN], the concentration for half-maximal inhibition (IC50) was determined as 1 nM in the assay on K562 [1] and 15.8 nM in the assay with K562 [2].
